Patent US20180133327A1, “Cell Penetrating Peptides and Complexes Comprising the Same” (Amal Therapeutics SA, priority 2015, published 2018)

Assays:
[1] = system: OVA323-339-specific CD4+ T cells from OT-2 T cell TCR transgenic mice; experiment: In vitro epitope presentation assay, MHC class II (BMDCs, proliferation of OT-2 T cells); assay type: cell-based, mouse; details: for in vitro proliferation of CD4 T cells (MHC class II presentation): BMDCs loaded 4 h with 300 nM ZxxOVACD8CD4, LPS o.n., 4 days
Method: BMDCs were loaded 4 h with 300nM of the different Zebra CPP truncation conjugated to both ovalbumin CD8 and CD4 epitopes (Z13OVACD8CD4, Z15OVACD8CD4 and Z18OVACD8CD4), then washed and incubated o.n. with 100 ng/ml of LPS. Efficient MHC class I or class II-restricted presentation was monitored after 4 days with CFSE-labeled naïve OVA257-264-specific CD8^+T cells from OT-1 T cell receptor (TCR) transgenic mice OT1 cells (A) or CFSE-labeled naïve OVA323-339-specific CD^+T cells from OT-2 T cell TCR transgenic mice respectively. As positive control, BMDCs were pulsed for 1 h with 5 uM peptide. Data from one experiment representative of three independent experiments.
In order to assess the capacity of the ZEBRA CPP truncations to stimulate an integrated immune response including CD4 T cells, antigenic cargoes were produced that included both CD8 and CD4 T cell epitopes from OVA, and conjugated to Z13, Z15 and Z18. Accordingly, the following constructs (Z13OVACD8CD4, Z15OVACD8CD4 and Z18OVACD8CD4) were synthesized:
Processing and presentation of the CD8 and CD4 T cell epitopes were monitored, as described in Example 2 for CD8 T cell epitopes, by measuring the in vitro proliferation of naïve OT-1 T cells (CD8 T cell epitopes; FIG. 4A) and OVA323-339-specific CD4^+ T cells from OT-2 T cell TCR transgenic mice, respectively (FIG. 4B). Briefly, OT-2 T cell TCR transgenic mice express TCR specific for MHC class II restricted OVA323-339.

[2] = system: human MART1-specific CD8 T cells; experiment: In vitro epitope presentation (MHC I) assay by human dendritic cells; assay type: cell-based; details: human monocyte-derived DCs loaded with 1 μM Zxx-MART1 for 4 h; intracellular staining for CD107, IFN-γ and TNF-α
Method: Human monocyte-derived DCs were loaded with 1 μM of scramble-MART1, Z13-MART1, Z14-MART1, Z15-MART1 or Z18-MART1 for 4 h, wash and then incubated o.n. at 37° C. Specific TCR-transfected T cells were then added to DCs and incubated for 5 h with monensin and brefeldinA before intracellular FACS staining for CD107, IFN-γ and TNF-α.
In order to assess the capacity of the ZEBRA CPP truncations to promote epitope presentation by human DCs, the following constructs (Z13-MART1, Z14-MART1, Z15-MART1 and Z18-MART1, with each of the Z13, Z14, Z15 and Z18 CPP conjugated to the HLA-A2 epitope of the tumor associated antigen (TAA) MART1)) were synthesized:
These constructs (Z13, Z14, Z15, and Z18 CPPs conjugated to the HLA-A2 epitope of the tumor associated antigen (TAA) MART1) were assessed for their capacity to promote epitope presentation on MHC class I by human DCs. To this purpose, DCs from an HLA-A2+ donor were prepared from elutriated monocytes, cultured in CelIGro DC medium (CellGenix, Freiburg, Germany) with granulocyte-macrophage colony-stimulating factor (GM-CSF; 2500 U/ml) (Leucomax; Schering-Plough, Kenilworth, N.J.) and interleukin-4 (IL-4; 1000 U/ml) (CellGenix). The immature DCs were matured with cytokines: IL-1β (10 ng/ml), IL-6 (1000 U/ml), tumor necrosis factor α (TNFα; 10 ng/ml) (all from CellGenix) and prostaglandin E2 (1 μg/ml) (Sigma-Aldrich). DCs were rested in CellGro DC medium for 2 hours and loaded with 1 μM Scramble-MART1, Z13-MART1, Z14-MART1, Z15-MART-1 or Z18-MART1 for 4 hrs at 37° C. before being washed once and plated at 300 000 cells per well in round-bottomed 96-well plates. Non-peptide loaded DCs were used as a negative control. T cells were expanded from peripheral blood mononuclear cells using Dynabeads ClinExVivo CD3/CD28 (Life Technologies, Oslo, Norway). Expanded T cells (day 10 post activation) were transfected with the DMFS TCR specific for MART1 by mRNA electroporation. T cells were co-incubated with DCs at a ratio of 1:2 for 5 hours in the presence of GolgiPlug and GolgiStop (both BD Biosciences) before intracellular staining was performed using the following antibodies after FcR blocking; CD4 (RPAT4), CD8 (RPAT8), CD107a (H4A3) (BD Biosciences), IFN-γ (4S.B3) and TNF-α (MAb11) (BD Biosciences), all from eBioscience except where noted. Fixation and permabilization was performed using the PerFix kit from Beckman Coulter according to manufacturer's instructions. Cells were analysed using an LSR II flow cytometer (BD Biosciences) and results were processed with Kaluza (Beckman Coulter) software. All conditions were tested in duplicate, and the experiment was repeated up to three times.

[3] = system: self antigen (CD8 epitope from gp100)-specific CD8 T cells; experiment: Self antigen-specific CD8 T cell response after vaccination (gp100CD8 restimulation, multimer staining); assay type: in vivo, mice; details: 10 nmol ZxxOVACD4gp100CD8 s.c. wk0, wk2, wk9, combined with MPLA or Hiltonol
Method: The constructs were tested in combination with Hiltonol (A) and MPLA (B). Briefly, Mice were vaccinated three times (wk0, wk2 and wk9) by s.c. injection (right flank) of 10 nmol of Z13OVACD4gp1 00CD8, Z14OVACD4gp1 00CD8, Z18OVACD4gp100CD8 and i.m. injection of […] of Hiltonol (right hind leg) or s.c. injection of 20 μg of MPLA. One week after the last vaccination, spleen cells were restimulated in vitro for 7 days with gp100CD8 peptide and stained as described in Example 6.
To extend the previous findings to self antigen-specific immune response, Z13, Z14 and Z18 conjugated to antigenic cargo containing a self antigen (CD8 epitope from gp100) and CD4 T cell epitope from OVA were synthesized.
Firstly, those constructs were tested with Hiltonol or MPLA adjuvant. To this end, mice were vaccinated three times (wk0, wk2 and wk9) by s.c. injection (right flank) of 10 nmol of Z13OVACD4gp100CD8, Z14OVACD4gp100CD8, Z18OVACD4gp100CD8 and i.m. injection of 50 μg of Hiltonol (right hind leg) or s.c. injection of 20 μg of MPLA. One week after the last vaccination, spleen cells were restimulated in vitro for 7 days with gp100CD8 peptide and stained as follow. Briefly, for surface staining, after FcR blocking, the following mAb were used: CD4 (RMA4-4), CD8 (53-6.7), CD11b (M1/70), CD19 (6D5), all from BD Biosciences. Dead cells were identified with LIVE/DEAD yellow fluorescent reactive dye (L34959) from Life Technologies and were excluded from analyses. MHC-peptide multimers were from Immudex (Copenhagen, Denmark). Multimer gating strategy used a dump gate (CD4, CD11b, CD19) and excluded dead cells.

| Sequence | in vitro proliferation of CD4 T cells (MHC class II presentation) [1] | stimulation of human MART1-specific CD8 T cells [2] | self antigen-specific CD8 T cell immune response [3] | efficiency of DC transduction and cargo delivery into the MHC class II antigen processing pathway ([1]; ZxxOVACD8CD4, 300 nM, compared with Z13 or Z15) |
| --- | --- | --- | --- | --- |
| KRYKNRVASRKSRAKFK (CPP Z15) [ZEBRA CPP truncation] | proliferation of both CD8 and CD4 T cells occurred | particularly efficacious |  |  |
| KRYKNRVASRKSRAKFKQLLQHYREVAAAK [Z14] |  | particularly efficacious | high self antigen-specific CD8 immune response |  |
| KRYKNRVASRKSRAKFKQLLQHYREVAAAKSSENDRLRLLLK [Z13] | proliferation of both CD8 and CD4 T cells occurred | particularly efficacious | high self antigen-specific CD8 immune response |  |
| REVAAAKSSENDRLRLLLK [Z18] | proliferation of both CD8 and CD4 T cells occurred | markedly less efficient | did not elicit self antigen-specific CD8 T cell responses | less efficient |
